Source: patent US10653709B2, “Methods of folding a graft copolymer with dual anticancer drugs and related applications” (priority 2014, dated 2020)

Legend:
Format in all cases: cell-based
[1] = tested on: HL-60; test: In vitro cytotoxicity, CellTiter-Glo Luminescent Cell Viability Assay; settings: Homo sapiens, HL-60 (leukemia), suspension cells, mean ± SD
[2] = tested on: HeLa; test: In vitro cytotoxicity, MTT assay; settings: Homo sapiens; HeLa (cervix), 48 hours, mean ± SD
Protocol: (§1) In vitro cytotoxicity of CPT, Dox, MB-20 and MB-20/Dox was measured using the 3-(4,5-dimethylthiazol-2-yl)-2,5-diphenyltetrazolium bromide (MTT) assay. Briefly, cancer cells were seeded in a 96-well plate at a density of 5,000 cells per well. After 12 h incubation, a series of drug dilution (1 nM to 300 μM) were added into wells. After 48 h of drug treatment, the cytotoxicity was measured using the MTT assay. To enhance the assay sensitivity, Sorensen's glycine buffer (0.1 M glycine, 0.1 M NaCl adjust pH to 10.5 with 0.1 N NaOH) was added into wells before absorbance assay. See Plumb et al., Cancer Res., 49, 4435-4440 (1989); Tai et al., Mol. Pharm., 8, 901-912 (2011); and Tai et al., Mol. Pharm., 10, 477-487 (2013). The absorbance at wavelength of 570 nm was measured using a microplate reader (Infinite® M200 PRO, Tecan, Mannedorf, Switzerland). The half-maximal inhibitory concentration (IC50) was calculated by fitting a concentration—absorbance curve using the Graphpad Prism 5 software (Graphpad Software Inc., San Diego, Calif., United States of America).

[3] = tested on: A549; test: In vitro cytotoxicity, MTT assay; settings: Homo sapiens; A549 (lung), 48 hours, mean ± SD
Protocol: as §1

[4] = tested on: Hep G2; test: In vitro cytotoxicity, MTT assay; settings: Homo sapiens, HepG2; Hep G2 (liver), 48 hours, mean ± SD
Protocol: as §1

[5] = tested on: MCF-7; test: In vitro cytotoxicity, MTT assay; settings: Homo sapiens, MCF7; MCF-7 (breast), 48 hours, mean ± SD
Protocol: as §1

[6] = tested on: NCI-H441; test: In vitro cytotoxicity, MTT assay; settings: Homo sapiens; NCI-H441 (lung), 48 hours, mean ± SD
Protocol: as §1

[7] = tested on: MDA-MB-231; test: In vitro cytotoxicity, MTT assay; settings: Homo sapiens; MDA-MB-231 (breast), 48 hours, mean ± SD
Protocol: as §1

[8] = tested on: MDA-MB-468; test: In vitro cytotoxicity, MTT assay; settings: Homo sapiens; MDA-MB-468 (breast), 48 hours, mean ± SD
Protocol: as §1

[9] = tested on: PC-3; test: In vitro cytotoxicity, MTT assay; settings: Homo sapiens; PC-3 (prostate), 48 hours, mean ± SD
Protocol: as §1

[10] = tested on: panel of 9 cancer cell lines; test: In vitro cytotoxicity across the panel; settings: range over the panel, 48 hours; read-out: IC50s across cancer cell lines
Protocol: as §1

| SMILES | IC50 [1] [nM] | IC50 [2] [nM] | IC50 [3] [nM] | IC50 [4] [nM] | IC50 [5] [nM] | IC50 [6] [nM] | IC50 [7] [nM] | IC50 [8] [nM] | IC50 [9] [nM] | IC50 [10] [nM] |
| --- | --- | --- | --- | --- | --- | --- | --- | --- | --- | --- |
| CC[C@@]1(O)C(=O)OCc2c1cc1n(c2=O)Cc2cc3ccccc3nc2-1 [CPT, camptothecin] | 400 ± 1000 | 3300 ± 1500 | 300 | 600 ± 1400 | 1200 ± 1000 | 100 ± 200 | 600 ± 500 | 90 ± 90 | 20 | 20 to 3300 |
| COc1cccc2c1C(=O)c1c(O)c3c(c(O)c1C2=O)C[C@@](O)(C(=O)CO)C[C@@H]3O[C@H]1C[C@H](N)[C@H](O)[C@H](C)O1 [Dox, doxorubicin] | 300 | 1000 ± 1700 | 500 ± 800 | 500 ± 1400 | 300 | 200 ± 400 | 100 | 100 | 200 ± 400 |  |
